Reference: publication PMC6874179, “Development of Macrocycle Kinase Inhibitors for ALK2 Using Fibrodysplasia Ossificans Progressiva‐Derived Endothelial Cells” (JBMR Plus, 2019)

Experiments:
PAK7 = molecular target: T1, PAK7 (Homo sapiens, UniProt Q9P286); test: Proqinase Kinase profiling; type: biochemical; settings: read-out: % inhibition at 100nM
T1 construct: purchased DiscoverX

STK17A = molecular target: T2, STK17A (Homo sapiens, UniProt Q9UEE5); test: Proqinase Kinase profiling; type: biochemical; settings: read-out: % inhibition at 100nM
T2 construct: purchased DiscoverX

FGFR3_K650M = molecular target: T3, FGFR3_K650M (Homo sapiens, UniProt P22607, K650M); test: Proqinase Kinase profiling; type: biochemical; settings: read-out: % inhibition at 100nM
T3 construct: purchased DiscoverX

[1] = tested on: TGF-β-induced CAGA-LUC reporter activity; test: TGF-β CAGA-LUC reporter assay in KS483 cells; type: cell-based, mouse; settings: TGF-β 5 ng/mL 16 hours, compared with LDN-193189
Description: (§1) Compounds were added for 16 hours at 0.5μM before luciferase activity was measured.
For luciferase reporter assays, cells were seeded in 24-well plates and transfected with DharmaFECT Duo (Fisher Scientific, Landsmeer, The Netherlands), following the recommendations of the manufacturer. 48 hours after transfection the cells were harvested and lysed. […] Each transfection mixture was equalized with empty vector when necessary and every experiment was performed in triplicate.

MAPK1 = molecular target: T4, MAPK1 (Homo sapiens, UniProt P28482); test: Proqinase Kinase profiling; type: biochemical; settings: read-out: % inhibition at 100nM
T4 construct: purchased DiscoverX

PRKCH = molecular target: T5, PRKCH (Homo sapiens, UniProt P24723); test: Proqinase Kinase profiling; type: biochemical; settings: read-out: % inhibition at 100nM
T5 construct: purchased DiscoverX

MARK2 = molecular target: T6, MARK2 (Homo sapiens, UniProt Q7KZI7); test: Proqinase Kinase profiling; type: biochemical; settings: read-out: % inhibition at 100nM
T6 construct: purchased DiscoverX

RPS6KA2 = molecular target: T7, RPS6KA2 (Homo sapiens, UniProt Q15349); test: Proqinase Kinase profiling; type: biochemical; settings: read-out: % inhibition at 100nM
T7 construct: purchased DiscoverX

BMP-6-induced p-Smad1/5 = test: Western blot of p-Smad1/5 in KS483 cells; type: cell-based, mouse
Description: as §1
Cells were seeded into 6-well plates and cultured till they reached confluence. Next, cells were stimulated as indicated and then washed with cold PBS. […] Electrophoresis was performed in 10% SDS/polyacrylamide gels. Separated proteins were transferred to nitrocellulose membranes (0.5 A at 100 V; in ice) for 1 hour. Blots were blocked in Tris-Buffered Saline solution containing 0.1% Tween 20 and 5% non-fat dry milk overnight at 4 °C, and immune-detection of specific proteins was carried out with primary antibodies (see above) followed by horseradish peroxidase-conjugated anti-mouse or anti-rabbit (GE Healthcare, Eindhoven, The Netherlands) secondary antibodies using an ECL system (Fisher Scientific, Landsmeer, The Netherlands).

RET_V804M = molecular target: T8, RET_V804M (Homo sapiens, UniProt P07949, V804M); test: Proqinase Kinase profiling; type: biochemical; settings: read-out: % inhibition at 100nM
T8 construct: purchased DiscoverX

ZAP70 = molecular target: T9, ZAP70 (Homo sapiens, UniProt P43403); test: Proqinase Kinase profiling; type: biochemical; settings: read-out: % inhibition at 100nM
T9 construct: purchased DiscoverX

PRKCG = molecular target: T10, PRKCG (Homo sapiens, UniProt P05129); test: Proqinase Kinase profiling; type: biochemical; settings: read-out: % inhibition at 100nM
T10 construct: purchased DiscoverX

LIMK1 = molecular target: T11, LIMK1 (Homo sapiens, UniProt P53667); test: Proqinase Kinase profiling; type: biochemical; settings: read-out: % inhibition at 100nM
T11 construct: purchased DiscoverX

PLK4 = molecular target: T12, PLK4 (Homo sapiens, UniProt O00444); test: Proqinase Kinase profiling; type: biochemical; settings: read-out: % inhibition at 100nM
T12 construct: purchased DiscoverX

EPHA7 = molecular target: T13, EPHA7 (Homo sapiens, UniProt Q15375); test: Proqinase Kinase profiling; type: biochemical; settings: read-out: % inhibition at 100nM
T13 construct: purchased DiscoverX

EPHB2 = molecular target: T14, EPHB2 (Homo sapiens, UniProt P29323); test: Proqinase Kinase profiling; type: biochemical; settings: read-out: % inhibition at 100nM
T14 construct: purchased DiscoverX

CDC42BPB = molecular target: T15, CDC42BPB (Homo sapiens, UniProt Q9Y5S2); test: Proqinase Kinase profiling; type: biochemical; settings: read-out: % inhibition at 100nM
T15 construct: purchased DiscoverX

PTK2B = molecular target: T16, PTK2B (Homo sapiens, UniProt Q14289); test: Proqinase Kinase profiling; type: biochemical; settings: read-out: % inhibition at 100nM
T16 construct: purchased DiscoverX

FLT3_ITD = test: Proqinase Kinase profiling; type: biochemical
MERTK = molecular target: T17, MERTK (Homo sapiens, UniProt Q12866); test: Proqinase Kinase profiling; type: biochemical; settings: read-out: % inhibition at 100nM
T17 construct: purchased DiscoverX

FER = molecular target: T18, FER (Homo sapiens, UniProt P16591); test: Proqinase Kinase profiling; type: biochemical; settings: read-out: % inhibition at 100nM
T18 construct: purchased DiscoverX

PDGFRA_T674I = molecular target: T19, PDGFRA_T674I (Homo sapiens, UniProt P16234, T674I); test: Proqinase Kinase profiling; type: biochemical; settings: read-out: % inhibition at 100nM
T19 construct: purchased DiscoverX

panel of 366–468 kinases = test: Kinase panel selectivity; type: biochemical; settings: compound at 100nM
Text: Figure 4 ALK2 binding and kinase profile of OD36 and OD52.

RPS6KB1 = molecular target: T20, RPS6KB1 (Homo sapiens, UniProt P23443); test: Proqinase Kinase profiling; type: biochemical; settings: read-out: % inhibition at 100nM
T20 construct: purchased DiscoverX

PTK6 = molecular target: T21, PTK6 (Homo sapiens, UniProt Q13882); test: Proqinase Kinase profiling; type: biochemical; settings: read-out: % inhibition at 100nM
T21 construct: purchased DiscoverX

MAPKAPK5 = molecular target: T22, MAPKAPK5 (Homo sapiens, UniProt Q8IW41); test: Proqinase Kinase profiling; type: biochemical; settings: read-out: % inhibition at 100nM
T22 construct: purchased DiscoverX

DSTYK = molecular target: T23, DSTYK (Homo sapiens, UniProt Q6XUX3); test: Proqinase Kinase profiling; type: biochemical; settings: read-out: % inhibition at 100nM
T23 construct: purchased DiscoverX

PRKCA = molecular target: T24, PRKCA (Homo sapiens, UniProt P17252); test: Proqinase Kinase profiling; type: biochemical; settings: read-out: % inhibition at 100nM
T24 construct: purchased DiscoverX

ABL1_T351I = molecular target: T25, ABL1_T351I (Homo sapiens, UniProt P00519, T315I); test: Proqinase Kinase profiling; type: biochemical; settings: read-out: % inhibition at 100nM
T25 construct: purchased DiscoverX

PRKCB1_II = molecular target: T26, PRKCB1_II (Homo sapiens, UniProt P05771); test: Proqinase Kinase profiling; type: biochemical; settings: read-out: % inhibition at 100nM
T26 construct: purchased DiscoverX

WEE1 = molecular target: T27, WEE1 (Homo sapiens, UniProt P30291); test: Proqinase Kinase profiling; type: biochemical; settings: read-out: % inhibition at 100nM
T27 construct: purchased DiscoverX

BRSK1 = molecular target: T28, BRSK1 (Homo sapiens, UniProt Q8TDC3); test: Proqinase Kinase profiling; type: biochemical; settings: read-out: % inhibition at 100nM
T28 construct: purchased DiscoverX

PAK2 = molecular target: T29, PAK2 (Homo sapiens, UniProt Q13177); test: Proqinase Kinase profiling; type: biochemical; settings: read-out: % inhibition at 100nM
T29 construct: purchased DiscoverX

BTK = molecular target: T30, BTK (Homo sapiens, UniProt Q06187); test: Proqinase Kinase profiling; type: biochemical; settings: read-out: % inhibition at 100nM
T30 construct: purchased DiscoverX

GSK3A = molecular target: T31, GSK3A (Homo sapiens, UniProt P49840); test: Proqinase Kinase profiling; type: biochemical; settings: read-out: % inhibition at 100nM
T31 construct: purchased DiscoverX

DNAPK = molecular target: T32, DNAPK (Homo sapiens, UniProt P78527); test: Proqinase Kinase profiling; type: biochemical; settings: read-out: % inhibition at 100nM
T32 construct: purchased DiscoverX

MAPKAPK3 = molecular target: T33, MAPKAPK3 (Homo sapiens, UniProt Q16644); test: Proqinase Kinase profiling; type: biochemical; settings: read-out: % inhibition at 100nM
T33 construct: purchased DiscoverX

T13 sequence (Q15375 28-998): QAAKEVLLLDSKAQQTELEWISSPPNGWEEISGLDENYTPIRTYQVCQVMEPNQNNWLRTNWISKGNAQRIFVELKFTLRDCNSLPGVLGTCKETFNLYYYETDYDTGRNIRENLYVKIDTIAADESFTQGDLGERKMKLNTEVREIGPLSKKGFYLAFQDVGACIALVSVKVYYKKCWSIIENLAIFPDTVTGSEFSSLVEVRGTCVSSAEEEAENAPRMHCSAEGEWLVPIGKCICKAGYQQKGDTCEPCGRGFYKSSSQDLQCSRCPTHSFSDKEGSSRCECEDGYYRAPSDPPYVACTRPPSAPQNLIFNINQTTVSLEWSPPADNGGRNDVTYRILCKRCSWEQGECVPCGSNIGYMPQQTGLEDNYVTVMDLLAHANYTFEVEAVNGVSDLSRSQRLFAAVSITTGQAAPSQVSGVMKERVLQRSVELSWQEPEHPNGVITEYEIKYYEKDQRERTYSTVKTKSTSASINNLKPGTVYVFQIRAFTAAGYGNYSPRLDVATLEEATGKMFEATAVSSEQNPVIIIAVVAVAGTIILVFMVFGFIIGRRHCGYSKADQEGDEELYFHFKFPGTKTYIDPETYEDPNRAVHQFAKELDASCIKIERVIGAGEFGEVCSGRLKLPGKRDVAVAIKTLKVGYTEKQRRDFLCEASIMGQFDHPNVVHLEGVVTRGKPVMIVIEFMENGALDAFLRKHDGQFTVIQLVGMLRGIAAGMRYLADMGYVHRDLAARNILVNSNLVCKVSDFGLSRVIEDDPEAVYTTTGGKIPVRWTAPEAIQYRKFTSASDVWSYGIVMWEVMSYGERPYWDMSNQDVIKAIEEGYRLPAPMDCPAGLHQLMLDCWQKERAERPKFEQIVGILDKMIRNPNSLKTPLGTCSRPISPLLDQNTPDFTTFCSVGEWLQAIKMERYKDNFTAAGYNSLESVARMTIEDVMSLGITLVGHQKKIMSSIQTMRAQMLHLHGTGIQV
T9 sequence (P43403 whole entry): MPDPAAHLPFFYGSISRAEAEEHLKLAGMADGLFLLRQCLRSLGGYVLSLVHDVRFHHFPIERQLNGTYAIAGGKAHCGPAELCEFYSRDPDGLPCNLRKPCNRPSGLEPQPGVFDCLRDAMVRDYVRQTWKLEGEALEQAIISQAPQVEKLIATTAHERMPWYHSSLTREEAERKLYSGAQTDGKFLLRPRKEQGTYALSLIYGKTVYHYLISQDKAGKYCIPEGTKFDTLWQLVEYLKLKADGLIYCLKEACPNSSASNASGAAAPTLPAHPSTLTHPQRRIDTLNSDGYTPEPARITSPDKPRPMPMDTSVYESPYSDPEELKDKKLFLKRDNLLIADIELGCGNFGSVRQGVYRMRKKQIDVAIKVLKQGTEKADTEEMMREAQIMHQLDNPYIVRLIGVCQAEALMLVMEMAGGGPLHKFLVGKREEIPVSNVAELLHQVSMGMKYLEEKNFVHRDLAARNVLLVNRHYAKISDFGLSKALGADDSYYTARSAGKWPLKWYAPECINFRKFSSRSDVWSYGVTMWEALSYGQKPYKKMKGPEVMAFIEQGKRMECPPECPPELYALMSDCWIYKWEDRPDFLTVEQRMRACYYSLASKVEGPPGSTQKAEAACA
T20 sequence (P23443 whole entry): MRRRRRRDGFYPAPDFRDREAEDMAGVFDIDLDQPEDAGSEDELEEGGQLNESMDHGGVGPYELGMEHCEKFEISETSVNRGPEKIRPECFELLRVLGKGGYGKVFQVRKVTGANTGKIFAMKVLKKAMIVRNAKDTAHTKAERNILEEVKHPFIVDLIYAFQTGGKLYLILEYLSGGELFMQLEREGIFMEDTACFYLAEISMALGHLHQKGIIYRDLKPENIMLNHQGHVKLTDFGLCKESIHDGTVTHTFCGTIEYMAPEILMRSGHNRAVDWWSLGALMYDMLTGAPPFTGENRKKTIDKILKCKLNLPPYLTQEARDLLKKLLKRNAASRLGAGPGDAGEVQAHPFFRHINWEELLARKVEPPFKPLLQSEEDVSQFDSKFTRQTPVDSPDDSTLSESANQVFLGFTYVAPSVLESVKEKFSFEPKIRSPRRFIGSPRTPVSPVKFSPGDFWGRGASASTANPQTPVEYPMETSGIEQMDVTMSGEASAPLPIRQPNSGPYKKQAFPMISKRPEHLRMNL
T5 sequence (P24723 whole entry): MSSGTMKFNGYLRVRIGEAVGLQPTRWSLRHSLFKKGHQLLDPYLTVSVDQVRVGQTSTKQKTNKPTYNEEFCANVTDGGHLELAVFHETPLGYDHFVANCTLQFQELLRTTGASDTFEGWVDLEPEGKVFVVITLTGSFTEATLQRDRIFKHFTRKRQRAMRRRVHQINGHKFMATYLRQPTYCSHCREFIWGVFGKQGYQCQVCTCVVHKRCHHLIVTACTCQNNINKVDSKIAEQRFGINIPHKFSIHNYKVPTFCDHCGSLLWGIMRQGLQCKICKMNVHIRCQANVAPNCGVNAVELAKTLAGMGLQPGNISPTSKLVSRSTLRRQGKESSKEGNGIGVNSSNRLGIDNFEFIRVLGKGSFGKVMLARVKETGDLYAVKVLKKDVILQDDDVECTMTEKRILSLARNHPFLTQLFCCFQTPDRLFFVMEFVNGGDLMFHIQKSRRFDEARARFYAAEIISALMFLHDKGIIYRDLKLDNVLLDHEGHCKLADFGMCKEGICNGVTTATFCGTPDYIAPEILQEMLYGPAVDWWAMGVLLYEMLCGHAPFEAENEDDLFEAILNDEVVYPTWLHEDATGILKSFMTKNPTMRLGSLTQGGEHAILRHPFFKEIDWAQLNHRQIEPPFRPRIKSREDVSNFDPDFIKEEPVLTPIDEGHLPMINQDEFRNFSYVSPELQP
T31 sequence (P49840 whole entry): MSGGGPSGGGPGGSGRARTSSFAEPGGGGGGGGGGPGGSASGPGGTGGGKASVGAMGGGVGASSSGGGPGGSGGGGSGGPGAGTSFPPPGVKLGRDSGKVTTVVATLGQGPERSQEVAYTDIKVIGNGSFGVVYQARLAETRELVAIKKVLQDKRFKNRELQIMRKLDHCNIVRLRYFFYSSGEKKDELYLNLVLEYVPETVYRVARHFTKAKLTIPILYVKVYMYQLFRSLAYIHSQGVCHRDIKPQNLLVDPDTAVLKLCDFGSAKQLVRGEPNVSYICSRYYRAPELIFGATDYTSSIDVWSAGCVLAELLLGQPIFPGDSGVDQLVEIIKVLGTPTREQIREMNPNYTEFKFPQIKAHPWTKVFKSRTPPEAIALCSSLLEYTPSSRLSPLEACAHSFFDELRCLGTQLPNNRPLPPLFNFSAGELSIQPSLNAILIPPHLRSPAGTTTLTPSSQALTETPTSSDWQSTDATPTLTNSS
T4 sequence (P28482 whole entry): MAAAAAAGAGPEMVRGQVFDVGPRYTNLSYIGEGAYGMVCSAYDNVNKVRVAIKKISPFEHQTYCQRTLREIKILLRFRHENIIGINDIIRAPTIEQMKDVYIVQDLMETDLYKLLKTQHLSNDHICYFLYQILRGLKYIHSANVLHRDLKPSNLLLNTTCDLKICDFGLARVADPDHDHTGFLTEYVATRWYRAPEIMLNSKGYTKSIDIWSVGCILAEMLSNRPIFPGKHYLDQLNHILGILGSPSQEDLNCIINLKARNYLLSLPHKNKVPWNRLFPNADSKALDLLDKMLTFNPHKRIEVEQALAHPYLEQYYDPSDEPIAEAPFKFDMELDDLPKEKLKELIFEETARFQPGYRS

Compound: Clc1cc2cc(c1)-c1cnn3ccc(nc13)NCCOCCO2 [OD36]
- inhibition at 0.1 µM (PAK7): 8%
- inhibition at 0.1 µM (STK17A): 23%
- inhibition at 0.1 µM (FGFR3_K650M): 2%
- Inhibitory effect on TGF-β-induced gene transcription (CAGA-LUC) [1]: significantly less inhibitory effect
- inhibition at 0.1 µM (MAPK1): 10%
- inhibition at 0.1 µM (PRKCH): 5%
- inhibition at 0.1 µM (MARK2): 11%
- inhibition at 0.1 µM (RPS6KA2): 7%
- Inhibition of BMP-6-induced p-Smad1/5 (BMP-6-induced p-Smad1/5): efficiently inhibited
- inhibition at 0.1 µM (RET_V804M): 5%
- inhibition at 0.1 µM (ZAP70): -3%
- inhibition at 0.1 µM (PRKCG): 16%
- inhibition at 0.1 µM (LIMK1): 16%
- inhibition at 0.1 µM (PLK4): -1%
- inhibition at 0.1 µM (EPHA7): 23%
- inhibition at 0.1 µM (EPHB2): -2%
- inhibition at 0.1 µM (CDC42BPB): 7%
- inhibition at 0.1 µM (PTK2B): -2%
- % inhibition at 100nM (FLT3_ITD): 36%
- inhibition at 0.1 µM (MERTK): 15%
- inhibition at 0.1 µM (FER): 6%
- inhibition at 0.1 µM (PDGFRA_T674I): -22%
- Selectivity: % of tested kinases inhibited over 50% (panel of 366–468 kinases): 4.3%
- inhibition at 0.1 µM (RPS6KB1): -9%
- inhibition at 0.1 µM (PTK6): 46%
- inhibition at 0.1 µM (MAPKAPK5): 12%
- inhibition at 0.1 µM (DSTYK): 3%
- inhibition at 0.1 µM (PRKCA): 26%
- inhibition at 0.1 µM (ABL1_T351I): 9%
- inhibition at 0.1 µM (PRKCB1_II): -5%
- inhibition at 0.1 µM (WEE1): 15%
- inhibition at 0.1 µM (BRSK1): 8%
- inhibition at 0.1 µM (PAK2): -5%
- inhibition at 0.1 µM (BTK): 3%
- inhibition at 0.1 µM (GSK3A): 6%
- inhibition at 0.1 µM (DNAPK): 13%
- inhibition at 0.1 µM (MAPKAPK3): -1%

Compound: Cc1cc2cc(c1)-c1cnn3ccc(nc13)NCCNC(=O)CCN(C)C2 [OD52]
- inhibition at 0.1 µM (PAK7): 5%
- inhibition at 0.1 µM (STK17A): 4%
- inhibition at 0.1 µM (FGFR3_K650M): -2%
- Inhibitory effect on TGF-β-induced gene transcription (CAGA-LUC) [1]: significantly less inhibitory effect
- inhibition at 0.1 µM (MAPK1): -1%
- inhibition at 0.1 µM (PRKCH): -20%
- inhibition at 0.1 µM (MARK2): -9%
- inhibition at 0.1 µM (RPS6KA2): -2%
- Inhibition of BMP-6-induced p-Smad1/5 (BMP-6-induced p-Smad1/5): efficiently inhibited
- inhibition at 0.1 µM (RET_V804M): -6%
- inhibition at 0.1 µM (ZAP70): -13%
- inhibition at 0.1 µM (PRKCG): 11%
- inhibition at 0.1 µM (LIMK1): -5%
- inhibition at 0.1 µM (PLK4): -1%
- inhibition at 0.1 µM (EPHA7): -18%
- inhibition at 0.1 µM (EPHB2): 15%
- inhibition at 0.1 µM (CDC42BPB): 11%
- inhibition at 0.1 µM (PTK2B): 6%
- % inhibition at 100nM (FLT3_ITD): 19%
- inhibition at 0.1 µM (MERTK): -10%
- inhibition at 0.1 µM (FER): -12%
- inhibition at 0.1 µM (PDGFRA_T674I): 4%
- Selectivity: % of tested kinases inhibited over 50% (panel of 366–468 kinases): 0.9%
- inhibition at 0.1 µM (RPS6KB1): -2%
- inhibition at 0.1 µM (PTK6): 0%
- inhibition at 0.1 µM (MAPKAPK5): 26%
- inhibition at 0.1 µM (DSTYK): -1%
- inhibition at 0.1 µM (PRKCA): 8%
- inhibition at 0.1 µM (ABL1_T351I): -15%
- inhibition at 0.1 µM (PRKCB1_II): -7%
- inhibition at 0.1 µM (WEE1): 3%
- inhibition at 0.1 µM (BRSK1): -1%
- inhibition at 0.1 µM (PAK2): -7%
- inhibition at 0.1 µM (BTK): -2%
- inhibition at 0.1 µM (GSK3A): 1%
- inhibition at 0.1 µM (DNAPK): 4%
- inhibition at 0.1 µM (MAPKAPK3): -25%
